Data on nine compounds can be found in PubChem BioAssay (NCI).

Among the test systems are SNB-19 CNS; SK-MEL-28 melanoma; NCI-H460 lung; SNB-75 CNS; M14 melanoma; SK-MEL-2 melanoma; HL-60(TB) leukemia; RXF 393 renal; EKVX NSCLC; UACC-62 melanoma.
Holding throughout (assay): NCI anticancer screen, dose series, 48 h

“And” between values parts separate entries of the source, which are not always exact repeats. Equal values may be shown once.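 Cultured in 96-well plates, cells were exposed to test compound for 48 hours across five concentrations. GI50: concentration for 50% inhibition of growth. TGI: concentration producing complete growth inhibition.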

For the compound `Nc1ccc(-c2ccc(-c3nc4cc(Cl)c(Cl)cc4[nH]3)cc2)cc1`, the GI50 in the assay on SNB-19 CNS is 23.7 µM; in the assay on SK-MEL-28 melanoma, 13.4 µM; with NCI-H460 lung it was 0.878 µM; in the assay with SNB-75 CNS, 16.3 µM; in the assay on M14 melanoma, 0.0456 µM; in the assay with SK-MEL-2 melanoma it was 2.46 µM. Moreover, the GI50 is 8.22 µM in the assay with HL-60(TB) leukemia, 5.71 µM in the assay with RXF 393 renal, 11.6 µM in the assay on EKVX NSCLC and less than 0.0215 µM in the assay on UACC-62 melanoma. The TGI was more than 100 µM in the assay with SNB-19 CNS; more than 100 µM in the assay on SK-MEL-28 melanoma; more than 31.9 µM with NCI-H460 lung; 55.9 µM with SNB-75 CNS; more than 37.1 µM with M14 melanoma; more than 100 µM in the assay with SK-MEL-2 melanoma. Also, the TGI with HL-60(TB) leukemia was more than 100 µM; in the assay with RXF 393 renal it was 38.8 µM; with EKVX NSCLC it was more than 100 µM; in the assay on UACC-62 melanoma, more than 45 µM.
In the case of `Cn1sc2ccccc2c1=S`, the TGI in the assay with SNB-19 CNS was determined as 31.4 µM; in the assay with SK-MEL-28 melanoma it was 22 µM; in the assay with NCI-H460 lung, 32.3 µM; with SNB-75 CNS, 17.4 µM; with M14 melanoma it was 22.2 µM; in the assay with SK-MEL-2 melanoma, 56.5 µM. Moreover, the TGI turned out to be 27.2 µM in the assay on HL-60(TB) leukemia, 7.95 µM in the assay with RXF 393 renal, 27.6 µM with EKVX NSCLC and 18.1 µM in the assay on UACC-62 melanoma.
For `O=C(O)CCSC(=S)Nc1ccc([N+](=O)[O-])cc1`, the TGI in the assay on SNB-19 CNS, in the assay with SK-MEL-28 melanoma, with NCI-H460 lung, with SNB-75 CNS, in the assay with M14 melanoma and in the assay on SK-MEL-2 melanoma was more than 100 µM throughout. The TGI with HL-60(TB) leukemia is 48.6 µM; in the assay with RXF 393 renal it was more than 100 µM; in the assay with EKVX NSCLC it was more than 100 µM; in the assay on UACC-62 melanoma, 46.7 µM.
In the case of `CCN1CCN(c2ccc(Nc3ncc4ccc5ncn(C(C)C)c5c4n3)nc2)CC1`, the GI50 in the assay with SNB-19 CNS was 0.187 µM; with SK-MEL-28 melanoma it was 0.2 µM; in the assay on NCI-H460 lung it was 0.0777 µM; in the assay on SNB-75 CNS, 0.14 µM; in the assay with M14 melanoma, 0.124 µM; in the assay on SK-MEL-2 melanoma, 0.144 µM. Moreover, the GI50 was less than 0.0238 µM in the assay with HL-60(TB) leukemia, 0.0765 µM in the assay on RXF 393 renal, 0.131 µM in the assay on EKVX NSCLC and 0.199 µM in the assay with UACC-62 melanoma. The TGI in the assay on SNB-19 CNS was found to be 15.5 µM; in the assay with SK-MEL-28 melanoma, 1.45 µM; in the assay on NCI-H460 lung, 0.68 µM; with SNB-75 CNS it was 0.415 µM; in the assay with M14 melanoma, 1.34 µM; with SK-MEL-2 melanoma it was 0.357 µM. The TGI with HL-60(TB) leukemia turned out to be 0.586 µM; in the assay on RXF 393 renal it was 0.248 µM; with EKVX NSCLC, 0.563 µM; in the assay on UACC-62 melanoma it was 0.723 µM.
For `CCOC(=O)N1C=CC(=C2C(=C3C=CN(C(=O)OCC)C=C3)C(=C3C=CN(C(=O)OCC)C=C3)C2=C2C=CN(C(=O)OCC)C=C2)C=C1`, the TGI in the assay with SNB-19 CNS, with SK-MEL-28 melanoma, in the assay with NCI-H460 lung, with SNB-75 CNS, in the assay with M14 melanoma and with SK-MEL-2 melanoma was more than 100 µM each time. Besides, the TGI with HL-60(TB) leukemia was more than 100 µM; with RXF 393 renal, more than 100 µM; with EKVX NSCLC, more than 100 µM; in the assay with UACC-62 melanoma it was 45 µM.
With `Cn1c(=N)n[n+]([O-])c2ccccc21`, the GI50 in the assay with SNB-19 CNS was 2.63 µM and 6.41 µM; in the assay with SK-MEL-28 melanoma it was 2.42 µM and 7.01 µM; in the assay on NCI-H460 lung, 2.59 µM and 20 µM. Also, the TGI was 12.3 µM and 13.3 µM in the assay with SNB-19 CNS; 5.88 µM and 15.6 µM in the assay on SK-MEL-28 melanoma; 4.53 µM and 37.5 µM in the assay on NCI-H460 lung; 3.56 µM and 8.45 µM in the assay with SNB-75 CNS; 3.7 µM and 3.76 µM in the assay on M14 melanoma; 8.87 µM and 12.5 µM with SK-MEL-2 melanoma. Besides, the TGI in the assay on HL-60(TB) leukemia was 10.1 µM and 10.4 µM; in the assay with RXF 393 renal, 36.4 µM; in the assay on EKVX NSCLC it was 18.3 µM; in the assay on UACC-62 melanoma, 2.37 µM and 3.61 µM.
Consider `O=S(=O)(CCCCl)SCCCCl`, for which the TGI is more than 100 µM in the assay on SNB-19 CNS; more than 100 µM in the assay with SK-MEL-28 melanoma; more than 100 µM in the assay on NCI-H460 lung; more than 94 µM in the assay on SNB-75 CNS; 47.3 µM with M14 melanoma; more than 100 µM with SK-MEL-2 melanoma. The TGI in the assay on HL-60(TB) leukemia is 24.5 µM; with RXF 393 renal, 57.8 µM; with EKVX NSCLC it was more than 100 µM; with UACC-62 melanoma, more than 100 µM.
Regarding `CC(C)(C)c1cc(-c2nc3c(F)c(F)c(F)c(F)c3[nH]2)cc(C(C)(C)C)c1O`, the GI50 in the assay with SNB-19 CNS, with SK-MEL-28 melanoma, in the assay on NCI-H460 lung, in the assay with SNB-75 CNS, in the assay with M14 melanoma and in the assay with SK-MEL-2 melanoma was more than 100 µM each time. Also, the GI50 with HL-60(TB) leukemia, in the assay on RXF 393 renal, with EKVX NSCLC and with UACC-62 melanoma was more than 100 µM throughout. In addition, the TGI in the assay on SNB-19 CNS, with SK-MEL-28 melanoma, in the assay with NCI-H460 lung, with SNB-75 CNS, with M14 melanoma and in the assay on SK-MEL-2 melanoma was more than 100 µM throughout. Moreover, the TGI with HL-60(TB) leukemia, with RXF 393 renal, in the assay with EKVX NSCLC and with UACC-62 melanoma was more than 100 µM each time.
In the case of `Cc1nc2sc(C(=O)Nc3cccc(Br)c3)c(N)c2cc1C(O)c1ccccc1` (stereo not drawn), the GI50 with SNB-19 CNS is 1.48 µM; in the assay on SK-MEL-28 melanoma, 4.61 µM; in the assay with NCI-H460 lung, 0.391 µM; in the assay on SNB-75 CNS, 0.224 µM; with M14 melanoma, 0.466 µM; in the assay on SK-MEL-2 melanoma, 1.77 µM. For the same compound, the GI50 in the assay with HL-60(TB) leukemia was 0.395 µM; with RXF 393 renal it was 0.483 µM; in the assay with EKVX NSCLC, 1.2 µM; in the assay with UACC-62 melanoma, 0.622 µM. In addition, the TGI with SNB-19 CNS is 18.9 µM; in the assay on SK-MEL-28 melanoma, 23.7 µM; with NCI-H460 lung, 4.74 µM; in the assay with SNB-75 CNS it was 4.15 µM; in the assay with M14 melanoma, 29.7 µM; in the assay on SK-MEL-2 melanoma, 26.4 µM. Also, the TGI was found to be 1.6 µM in the assay on HL-60(TB) leukemia, 10.9 µM with RXF 393 renal, 21 µM in the assay on EKVX NSCLC and 16.4 µM with UACC-62 melanoma.
